Assay results reported in patent US20260226085A1, “HETEROCYCLIC COMPOUNDS AS WRN INHIBITORS” (Synnovation Therapeutics, Inc., priority 2023, published 2026).

Each compound was assayed on SW48 colorectal cancer cells (assay: Cell-Titer Glo measurement of growth-inhibitory activity in SW48 cells). Conditions: Homo sapiens, 120 h, cell viability on day 5, Cell-titer Glo, baseline subtracted, 4PL fit, read-out: SW48_GI50.
Assay type: cell-based
Method: Example A. Cell-Titer Glo Measurement of Growth-Inhibitory Activity in SW48 Cells
This cell-based assay measures growth-inhibitory activity of selected WRN inhibitors in SW48 colorectal cancer cells. SW48 cell line (#CCL-231) was purchased from American type culture collection (ATCC). Cells were cultured following ATCC instructions. The base medium for this cell line is ATCC-formulated Leibovitz's L-15 Medium (#30-2008). To prepare complete medium, fetal bovine serum was added at a final concentration of 10%. Antibiotics including penicillin and streptomycin (#SV30010) were purchased from Cytiva and added into complete medium to prevent bacteria contamination. Cells with a passage number of below 20 were used in this cell-based assay. One day before the assay, cells were resuspended in complete medium and seeded into 96-well plates at a final density of 2000 cells per well. One extra plate was added to measure baseline viability on day 1 before compound treatment. Baseline cell viability was measured using Promega Cell-titer Glo reagent (#G7573) following the protocol provided by the manufacture. Compounds were dissolved in DMSO at a stock concentration of 10 mmol/L. Three-fold serial dilution was performed using DMSO to prepare master plates. Compounds were further diluted using complete medium and added into assay plates. The final concentration of DMSO was 0.2% in assay plates. Cell viability was measured on day 5 using Promega Cell-titer Glo reagent following the same protocol provided by the manufacture. Assay plates were kept on orbital shaker (300 rounds per min) for 2 min and then kept in 37° C. incubator for another 10 minutes. Cell-titer Glo luminescence signal was measured using i3x plate reader. Baseline cell viability was subtracted for growth inhibition 50 (GI50) estimate using GraphPad Prism following the four-parameter logistic (4PL) curve-fitting mathematical model.

Row | SMILES | GI50 [µM]
1 | CCc1c(N2CCN(Cc3ncccc3O)CC2)c(=O)n2nc(C3=CCOCC3)nc2n1CC(=O)Nc1ccc(C(F)(F)F)cc1Cl [Example 4, N-[2-chloro-4-(trifluoromethyl)phenyl]-2-[2-(3,6-dihydro-2H-pyran-4-yl)-5-ethyl-6-[4-[(3-hydroxy-2-pyridyl)methyl]piperazin-1-yl]-7-oxo-[1,2,4]triazolo[1,5-a]pyrimidin-4-yl]acetamide] | 0.1 to 1
2 | CCc1c(N2CCN(C(=O)c3c(O)ccc4cccnc34)CC2)c(=O)n2nc(C3=CCOCC3)nc2n1CC(=O)Nc1ccc(C(F)(F)F)cc1Cl [Example 5, N-[2-chloro-4-(trifluoromethyl)phenyl]-2-[2-(3,6-dihydro-2H-pyran-4-yl)-5-ethyl-6-[4-(7-hydroxyquinoline-8-carbonyl)piperazin-1-yl]-7-oxo-[1,2,4]triazolo[1,5-a]pyrimidin-4-yl]acetamide] | < 0.1
3 | CCc1c(N2CCN(Cc3ncccc3O)CC2)c(=O)n2nc(N3CCC4(CCCO4)CC3)nc2n1CC(=O)Nc1ccc(C(F)(F)F)cc1Cl [Example 7, N-(2-chloro-4-(trifluoromethyl)phenyl)-2-(5-ethyl-6-(4-((3-hydroxypyridin-2-yl)methyl)piperazin-1-yl)-7-oxo-2-(1-oxa-8-azaspiro[4.5]decan-8-yl)-[1,2,4]triazolo[1,5-a]pyrimidin-4(7H)-yl)acetamide] | 1 to 5
4 | CCc1c(N2CCN(C(=O)c3nc4ccccc4cc3O)CC2)c(=O)n2nc(C3=CCOCC3)nc2n1CC(=O)Nc1ccc(C(F)(F)F)cc1Cl [Example 2, N-[2-Chloro-4-(trifluoromethyl)phenyl]-2-[2-(3,6-dihydro-2H-pyran-4-yl)-5-ethyl-6-[4-(3-hydroxyquinoline-2-carbonyl)piperazin-1-yl]-7-oxo-[1,2,4]triazolo[1,5-a]pyrimidin-4-yl]acetamide] | < 0.1
5 | CCc1c(N2CCN(C(=O)c3c(O)ccc4cccnc34)CC2)c(=O)n2nc(N3CCC4(CCCO4)CC3)nc2n1CC(=O)Nc1ccc(C(F)(F)F)cc1Cl [Example 6, N-(2-chloro-4-(trifluoromethyl)phenyl)-2-(5-ethyl-6-(4-(7-hydroxyquinoline-8-carbonyl)piperazin-1-yl)-7-oxo-2-(1-oxa-8-azaspiro[4.5]decan-8-yl)-[1,2,4]triazolo[1,5-a]pyrimidin-4(7H)-yl)acetamide] | 0.1 to 1
6 | CCc1c(N2CCN(C(=O)c3ncc4ccccc4c3O)CC2)c(=O)n2nc(C3=CCOCC3)nc2n1CC(=O)Nc1ccc(C(F)(F)F)cc1Cl [Example 1, N-[2-Chloro-4-(trifluoromethyl)phenyl]-2-[2-(3,6-dihydro-2H-pyran-4-yl)-5-ethyl-6-[4-(4-hydroxyisoquinoline-3-carbonyl)piperazin-1-yl]-7-oxo-[1,2,4]triazolo[1,5-a]pyrimidin-4-yl]acetamide] | < 0.1

Further lines, results first:

Row | GI50 [µM] | SMILES
7 | < 0.1 | CCc1c(N2CCN(Cc3ncccc3O)CC2)c(=O)n2nc(-c3ccc(P(C)(C)=O)cc3)nc2n1CC(=O)Nc1ccc(C(F)(F)F)cc1Cl [Example 10, N-(2-Chloro-4-(trifluoromethyl)phenyl)-2-(2-(4-(dimethylphosphoryl)phenyl)-5-ethyl-6-(4-((3-hydroxypyridin-2-yl)methyl)piperazin-1-yl)-7-oxo-[1,2,4]triazolo[1,5-a]pyrimidin-4(7H)-yl)acetamide]
8 | < 0.1 | CCc1c(N2CCN(C(=O)c3c(O)ccc4cccnc34)CC2)c(=O)n2nc(-c3ccc(S(C)(=O)=O)cc3)nc2n1CC(=O)Nc1ccc(C(F)(F)F)cc1Cl [Example 8, N-(2-Chloro-4-(trifluoromethyl)phenyl)-2-(5-ethyl-6-(4-(7-hydroxyquinoline-8-carbonyl)piperazin-1-yl)-2-(4-(methylsulfonyl)phenyl)-7-oxo-[1,2,4]triazolo[1,5-a]pyrimidin-4(7H)-yl)acetamide]
9 | 0.1 to 1 | CCc1c(N2CCN(Cc3ncccc3O)CC2)c(=O)n2nc(-c3ccc(S(C)(=O)=O)cc3)nc2n1CC(=O)Nc1ccc(C(F)(F)F)cc1Cl [Example 9, N-(2-Chloro-4-(trifluoromethyl)phenyl)-2-(5-ethyl-6-(4-((3-hydroxypyridin-2-yl)methyl)piperazin-1-yl)-2-(4-(methylsulfonyl)phenyl)-7-oxo-[1,2,4]triazolo[1,5-a]pyrimidin-4(7H)-yl)acetamide]
